Results on 22 molecules are retold here after patent US8710233B2 (Gruenenthal GmbH, priority 2005, dated 2014).

Molecules are shown by their SMILES. pIC50, pKi: −log10 of the molar value.

The target of experiment [1] is VR1/TRPV1 receptor (Homo sapiens, UniProt Q8NER1). Description: IC50 (human) after pH stimulus. To be noted: for pIC50: table 4. The format is cell-based.
Experiment [2] has as its target T1, vanilloid receptor (VR1) (Homo sapiens, UniProt Q8NER1).
T1 construct: expressed in transfected cells; host or cells: CHO K1 cells (ECACC), stably transfected
In words: FLIPR Ca2+ influx assay on CHO K1 cells transfected with the VR1 gene (pharmacological method II). To be noted: table 4; capsaicin; read-out: Ki (human) Cap. It counts as cell-based. The text has this: In this FLIPR assay, the influx of Ca^2+ is quantified with the assistance of a Ca^2+-sensitive dye (type Fluo-4, Molecular Probes Europe BV, Leiden, Netherlands) in a Fluorescent Imaging Plate Reader (FLIPR, Molecular Devices, Sunnyvale, USA) as described below.
II. Functional Investigations on the Vanilloid Receptor (VR1)
The agonistic or antagonistic action of the substances to be investigated on the vanilloid receptor (VR1) may also be determined with the following assay. According to this assay, the influx of Ca^2+ through the channel is quantified with the assistance of a Ca^2+-sensitive dye (type Fluo-4, Molecular Probes Europe BV, Leiden, Netherlands) in a Fluorescent Imaging Plate Reader (FLIPR, Molecular Devices, Sunnyvale, USA).
Chinese hamster ovary cells (CHO K1 cells, European Collection of Cell Cultures (ECACC), Great Britain) are stably transfected with the VR1 gene. For functional investigations, these cells are plated out onto poly-D-lysine-coated, black 96 well plates with a clear bottom (BD Biosciences, Heidelberg, Germany) at a density of 25,000 cells/well. The cells are incubated overnight at 37° C. and 5% CO2 in a culture medium (Ham's Nutrient Mixture F12, 10 vol. % FCS (foetal calf serum), 18 μg/mL L-proline). On the following day, the cells are incubated with Fluo-4 (Fluo-4 2 μM, Pluronic F127 0.01 vol. %, Molecular Probes in HBSS (Hank's buffered saline solution), Gibco Invitrogen GmbH, Karlsruhe, Germany) for 30 minutes at 37° C. The plates are then washed 3 times with HBSS buffer and, after a further 15 minutes' incubation at room temperature, used for […] measurement in the FLIPR. […] Quantification proceeds by measuring the highest fluorescence intensity (FC, fluorescence counts) over time.
The FLIPR protocol comprises 2 additions of substance. The substances to be tested (10 μM) are firstly pipetted onto the cells and Ca^2+ influx is compared with the control (capsaicin 10 μM) (% activation relative to the Ca^2+ signal after addition of 10 μM of capsaicin). After 5 minutes' incubation, 100 nM of capsaicin are added and the influx of Ca^2+ is again determined.
The percentage inhibition in comparison with the maximum achievable inhibition with 10 μM capsaicin is calculated.

[3] abbreviates: read-out: inhibition in percent, IC50 (human) after pH stimulus.

T1 sequence (Q8NER1 whole entry): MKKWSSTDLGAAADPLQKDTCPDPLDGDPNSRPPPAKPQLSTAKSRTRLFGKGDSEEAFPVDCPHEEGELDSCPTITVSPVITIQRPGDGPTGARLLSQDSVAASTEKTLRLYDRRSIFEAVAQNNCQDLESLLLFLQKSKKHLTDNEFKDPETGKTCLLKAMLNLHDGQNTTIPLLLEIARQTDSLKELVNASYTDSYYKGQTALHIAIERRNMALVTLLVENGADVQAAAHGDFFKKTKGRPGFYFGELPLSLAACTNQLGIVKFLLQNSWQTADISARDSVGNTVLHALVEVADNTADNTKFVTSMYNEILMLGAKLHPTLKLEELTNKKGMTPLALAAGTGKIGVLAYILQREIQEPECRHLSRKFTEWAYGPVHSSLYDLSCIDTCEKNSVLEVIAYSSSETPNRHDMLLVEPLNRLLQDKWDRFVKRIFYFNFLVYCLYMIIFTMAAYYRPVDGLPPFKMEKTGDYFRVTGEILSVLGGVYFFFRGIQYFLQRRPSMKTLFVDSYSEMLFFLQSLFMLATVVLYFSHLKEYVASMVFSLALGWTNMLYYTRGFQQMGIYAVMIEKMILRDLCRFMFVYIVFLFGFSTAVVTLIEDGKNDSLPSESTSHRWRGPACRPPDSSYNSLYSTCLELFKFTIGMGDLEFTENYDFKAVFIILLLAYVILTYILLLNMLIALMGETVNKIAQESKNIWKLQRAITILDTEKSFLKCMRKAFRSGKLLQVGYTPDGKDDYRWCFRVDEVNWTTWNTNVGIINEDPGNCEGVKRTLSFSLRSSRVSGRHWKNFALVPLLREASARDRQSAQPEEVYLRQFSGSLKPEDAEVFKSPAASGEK
VR1/TRPV1 receptor, sequence (Q8NER1 whole entry): as above

The pIC50 is −log10 of the IC50, conventionally taken in molar units. Read a low pIC50 as a large IC50. In general, pKi refers to −log10 of the Ki, conventionally taken in molar units. Regarding `CCCCCc1nc(C(F)(F)F)ccc1CNC(=O)[C@@H](C)c1ccc(NS(C)(=O)=O)c(F)c1` [Example 144, (S)-2-(3-fluoro-4-methylsulfonamido-phenyl)-N-(2-pentyl-6-trifluoromethyl-pyridin-3-ylmethyl)-propionamide], in experiment [1], the pIC50 was 6.84. The pKi in experiment [2] was 9.00.

The inhibition is the relative decrease from the control value, in per cent. On to `CCCCCc1nc(C(F)(F)F)ccc1CNC(=O)[C@H](C)c1ccc(NS(C)(=O)=O)c(F)c1` [Example 145, (R)-2-(3-fluoro-4-methylsulfonamido-phenyl)-N-(2-pentyl-6-trifluoromethyl-pyridin-3-ylmethyl)-propionamide], for which the inhibition at 10 µM in experiment [1] (@ 10 μM, read-out: inhibition in percent, IC50 (human) after pH stimulus) worked out at 49%. The pKi in experiment [2] is 7.11.

As to `CC(C(=O)NCc1ccc(C(F)(F)F)nc1-c1ccc2c(c1)OCO2)c1ccc(NS(C)(=O)=O)c(F)c1` (stereo not drawn) [Example 266, N-(2-benzo[1,3]dioxol-5-yl-6-trifluoromethyl-pyridin-3-ylmethyl)-2-(3-fluoro-4-methylsulfonamido-phenyl)-propionamide], the “inhibition in percent, IC50 (human) after pH stimulus” value in experiment [1] (@ 1 μM, ne = no effect) was “ne @ 1 μM”. In experiment [2], the pKi is 8.47.

Consider `CC(C)=Cc1nc(C(F)(F)F)ccc1CNC(=O)C(C)c1ccc(NS(C)(=O)=O)c(F)c1` (stereo not drawn) [Example 273, 2-(3-fluoro-4-methylsulfonamido-phenyl)-N-[2-(2-methyl-propenyl)-6-trifluoromethyl-pyridin-3-ylmethyl]-propionamide], for which the pIC50 in experiment [1] was 5.79. Moreover, the pKi in experiment [2] is 7.94.

`CC(C(=O)NCc1ccc(C(F)(F)F)nc1-c1ccc2cc[nH]c2c1)c1ccc(NS(C)(=O)=O)c(F)c1` (stereo not drawn) [Example 275, 2-(3-fluoro-4-methylsulfonamido-phenyl)-N-[2-(1H-indol-6-yl)-6-trifluoromethyl-pyridin-3-ylmethyl]-propionamide]: the pIC50 in experiment [1] was 5.92. Besides, the pKi in experiment [2] is 7.69.

Turning to `Cc1cc(-c2nc(C(F)(F)F)ccc2CNC(=O)C(C)c2ccc(NS(C)(=O)=O)c(F)c2)ccc1F` (stereo not drawn) [Example 278, 2-(3-fluoro-4-methylsulfonamido-phenyl)-N-[2-(4-fluoro-3-methyl-phenyl)-6-trifluoromethyl-pyridin-3-ylmethyl]-propionamide], in experiment [1], the pIC50 was 7.12. Further, the pKi in experiment [2] is 9.40.

In experiment [1], `CC(C(=O)NCc1ccc(C(F)(F)F)nc1C1CCCCC1)c1ccc(NS(C)(=O)=O)c(F)c1` (stereo not drawn) [Example 291, N-(2-cyclohexyl-6-trifluoromethyl-pyridin-3-ylmethyl)-2-(3-fluoro-4-methylsulfonamido-phenyl)-propionamide] showed a negative-log IC50 (pIC50) of 7.36. In experiment [2], the pKi was 9.22.

On to `CC(C(=O)NCc1cnc(C(F)(F)F)cc1-c1ccccc1)c1ccc(NS(C)(=O)=O)c(F)c1` (stereo not drawn) [Example 292, 2-(3-fluoro-4-methylsulfonamido-phenyl)-N-(4-phenyl-6-trifluoromethyl-pyridin-3-ylmethyl)-propionamide], for which, in experiment [1] (@ 1 μM, ne = no effect, read-out: inhibition in percent, IC50 (human) after pH stimulus), the inhibition at 1 µM was 6%. The inhibition at 5 µM in experiment [1] (setting [3]) was determined as 63%. Moreover, the pKi in experiment [2] is 7.49.

Regarding `CC1CCN(c2nc(C(F)(F)F)ccc2CNC(=S)C(C)c2ccc(NS(C)(=O)=O)c(F)c2)CC1` (stereo not drawn) [Example 293, 2-(3-fluoro-4-methylsulfonamido-phenyl)-N-(4-methyl-6′-trifluoromethyl-3,4,5,6-tetrahydro-2H-[1,2′]bipyridinyl-3′-ylmethyl)-thiopropionamide], in experiment [1], the pIC50 is 6.89. Moreover, in experiment [2], the pKi is 8.85.

With `CC(C(=O)NCc1ccc(C(F)(F)F)nc1SC1CCCCC1)c1ccc(NS(C)(=O)=O)c(F)c1` (stereo not drawn) [Example 294, N-(2-cyclohexylsulfanyl-6-trifluoromethyl-pyridin-3-ylmethyl)-2-(3-fluoro-4-methylsulfonamido-phenyl)-propionamide], the pIC50 in experiment [1] was 6.52. Besides, the pKi in experiment [2] was 8.72.

As for `CC(C(=O)NCc1ccc(C(C)(C)C)nc1N1CCCCCC1)c1ccc(NS(C)(=O)=O)c(F)c1` (stereo not drawn) [Example 296, N-(2-azepan-1-yl-6-tert-butyl-pyridin-3-ylmethyl)-2-(3-fluoro-4-methansulfonylamino-phenyl)-propionamide], the pIC50 in experiment [1] was 6.81. Moreover, in experiment [2], the pKi was 9.05.

As for `CCCN(CCC)c1nc(C(C)(C)C)ccc1CNC(=O)C(C)c1ccc(NS(C)(=O)=O)c(F)c1` (stereo not drawn) [Example 297, N-(6-tert-butyl-2-dipropylamino-pyridin-3-ylmethyl)-2-(3-fluoro-4-methylsulfonamido-phenyl)-propionamide], in experiment [1], the pIC50 was 6.75. Moreover, in experiment [2], the pKi was 8.60.

`C/C=C\COc1nc(C(F)(F)F)ccc1CNC(=O)C(C)c1ccc(NS(C)(=O)=O)c(F)c1` (stereo not drawn) [Example 298, N-(2-but-2-enyloxy-6-trifluoromethyl-pyridin-3-ylmethyl)-2-(3-fluoro-4-methylsulfonamido-phenyl)-propionamide] gave a pIC50 in experiment [1] of 6.74. In experiment [2], the pKi is 8.80.

In the case of `CC/C=C\COc1nc(C(F)(F)F)ccc1CNC(=O)C(C)c1ccc(NS(C)(=O)=O)c(F)c1` (stereo not drawn) [Example 299, 2-(3-fluoro-4-methylsulfonamido-phenyl)-N-(2-pent-2-enyloxy-6-trifluoromethyl-pyridin-3-ylmethyl)-propionamide], the pIC50 in experiment [1] is 7.37. Besides, the pKi in experiment [2] was 9.00.

With `CCC/C=C\c1nc(C(F)(F)F)ccc1CNC(=O)C(C)c1ccc(NS(C)(=O)=O)c(F)c1` (stereo not drawn) [Example 300, 2-(3-fluoro-4-methylsulfonamido-phenyl)-N-(2-pent-1-enyl-6-trifluoromethyl-pyridin-3-ylmethyl)-propionamide], in experiment [1], the pIC50 is 7.23. Also, the pKi in experiment [2] is 8.68.

For the molecule `CCC/C=C/c1nc(C(F)(F)F)ccc1CNC(=O)C(C)c1ccc(NS(C)(=O)=O)c(F)c1` (stereo not drawn) [Example 301, 2-(3-fluoro-4-methylsulfonamido-phenyl)-N-(2-pent-1-enyl-6-trifluoromethyl-pyridin-3-ylmethyl)-propionamide], the negative logarithm of the IC50 (pIC50) in experiment [1] is 6.99. In addition, the pKi in experiment [2] was 9.05.

As to `CCCCCOc1nc(C(F)(F)F)cc(C)c1CNC(=O)C(C)c1ccc(NS(C)(=O)=O)c(F)c1` (stereo not drawn) [Example 302, 2-(3-fluoro-4-methylsulfonamido-phenyl)-N-(4-methyl-2-pentyloxy-6-trifluoromethyl-pyridin-3-ylmethyl)-propionamide], in experiment [1], the pIC50 is 5.93. In experiment [2], the negative-log Ki (pKi) was 7.00.

Take `CC(C(=O)NCc1ccc(C(F)(F)F)nc1CCc1ccc(F)cc1)c1ccc(NS(C)(=O)=O)c(F)c1` (stereo not drawn) [Example 303, 2-(3-fluoro-4-methylsulfonamido-phenyl)-N-{2-[2-(4-fluoro-phenyl)-ethyl]-6-trifluoromethyl-pyridin-3-ylmethyl}-propionamide]: in experiment [1], the pIC50 is 7.12. The pKi in experiment [2] is 8.74.

On to `CC(=O)C1(c2ccccc2)CCN(c2nc(C(F)(F)F)ccc2CNC(=O)C(C)c2ccc(NS(C)(=O)=O)c(F)c2)CC1` (stereo not drawn) [Example 304, N-(4-acetyl-4-phenyl-6′-trifluoromethyl-3,4,5,6-tetrahydro-2H-[1,2′]bipyridinyl-3′-ylmethyl)-2-(3-fluoro-4-methylsulfonamido-phenyl)-propionamide], for which the pIC50 in experiment [1] is 7.45. Moreover, the pKi in experiment [2] was 9.15.

In experiment [1], `CCC(=O)N(c1ccccc1)C1CCN(c2nc(C(F)(F)F)ccc2CNC(=O)C(C)c2ccc(NS(C)(=O)=O)c(F)c2)CC1` (stereo not drawn) [Example 307, 2-(3-fluoro-4-methylsulfonamido-phenyl)-N-[4-(phenyl-propionyl-amino)-6′-trifluoromethyl-3,4,5,6-tetrahydro-2H-[1,2′]bipyridinyl-3′-ylmethyl]-propionamide] had a pIC50 of 6.34. Further, the pKi in experiment [2] was 8.30.

As for `CC(C(=O)NCc1ccc(C(F)(F)F)nc1-c1ccc(N(C)C)cc1)c1ccc(NS(C)(=O)=O)c(F)c1` (stereo not drawn) [Example 308, N-[2-(4-dimethylamino-phenyl)-6-trifluoromethyl-pyridin-3-ylmethyl]-2-(3-fluoro-4-methylsulfonamido-phenyl)-propionamide], the pIC50 in experiment [1] was 6.38. Besides, the pKi in experiment [2] is 8.49.

On to `CC1CCN(c2nc(C(F)(F)F)ccc2CNC(=O)C(C)c2ccc(NS(=O)(=O)C(C)C)c(F)c2)CC1` (stereo not drawn) [Example 309, 2-[3-fluoro-4-(propan-2-sulfonylamino)-phenyl]-N-(4-methyl-6′-trifluoromethyl-3,4,5,6-tetrahydro-2H-[1,2′]bipyridinyl-3′-ylmethyl)-propionamide], for which the inhibition at 5 µM in experiment [1] (setting [3]) turned out to be 20%. The pKi in experiment [2] was 8.06.
